Legend:
[1] = Penetration of cortexolone 17α-propionate, Franz Diffusion Cells; format: in vitro ADME; settings: 1% (w/w) CB-03-01 in F4H5
Method: Cortexolone 17α-propionate (developmental code name CB-03-01; 21-Hydroxy-3,20-dioxopregn-4-en-17-yl propionate; CAS Registry Number: 19608-29-8) was dissolved in 1-perfluorbutylpentane (F4H5) to result in a solution of 1% (w/w) CB-03-01 in F4H5.

[2] = Penetration of latanoprost into minipig skin punches with and without hair (Franz Diffusion Cells, HPLC); format: in vitro ADME, Gottingen minipig; settings: 2 hours incubation
Method: Biological material: abdominal and dorsal full skin, R1 and part of L1 region, of 5 months old Gottingen minipig skin.
For the incubation experiments, Franz Diffusion Cells (FDC) having an inner diameter of 15 mm and an acceptor volume of 12 ml were used. Donor and acceptor chambers were made of glass.
Twelve frozen full thickness skin disks were punched with a diameter of 30 mm. After complete defrosting and equilibration to room temperature, the punches were clamped into Franz diffusion cells (FDC). Each skin disc was dried with wipes, clamped in between the corresponding FDCs having an inner diameter of 15 mm (1.767 cm^2 skin diffusion area) and an acceptor volume of approximately 12 ml. The receiver compartment of the cells was filled with PBS (phosphate buffered saline). Incubation was started by addition of 800 […]1 of test formulation 1-3. […]
Out of each skin disc, 20 skin discs having a diameter of 2 mm were obtained by punching with a disposable biopsy punch, which was put on top of the skin and pressed through the full thickness of the skin. […] The ten punches with hair and without hair obtained by each disc were placed respectively in pre-weighed tubes and the weight was determined. […]
Via HPLC analysis, the amount of latanoprost penetrated in the skin disks after incubation with the test formulations and the amount of latanoprost acid were evaluated and are illustrated in the FIGS. 1-3.

[3] = Penetration of latanoprost solution in hair roots of pig's eyelashes (eyelid incubation, HPLC); format: in vitro ADME
Method: Test formulation: 0.5 mg/ml latanoprost (Yonsung, Purity 100,2%) in 1-perfluorobutylpentane (Novaliq) and 1% v/v ethanol (Merck, Secco solve dried).
Biological material: fresh pig's eyes with eyelids, not in buffer solution during transport from the slaughterhouse to the laboratory.
The upper eyelids were separated from the eye with scissors, forceps and scalpel. Each eyelid was placed in a glass vessel and incubation with the test formulation was started by addition of 1 ml of formulation. Since the eyelashes had different lengths, before incubation the eyelashes were shortened to standardise the incubation procedure. After incubation according to the plan in Table 3, the eyelids were washed with 1-perfluorobutylpentane eight times and eyelashes were plucked and weighted, as shown in Table 3.
After plucking of the eyelashes, the eyelids were punched with a 4 mm (0,126 cm^2) biopsy tool 5 times (total area 0,628 cm^2). The skin and the conjunctiva were then separated.
Extraction via addition of […] ACN (acetonitrile) to each sample at room temperature on orbital shaker (150 rpm) and minirotator (Biosan maximum level) for 2 hours. Then the samples were centrifuged for 5 minutes at 13000 rpm. The supernatant collected from the samples was stored at −20° C. till analysis.
The amount of latanoprost and of the bio transformed latanoprost acid in the tissues and eyelashes were determined via HPLC. For the calculation, the mean assay values for latanoprost acid were corrected with a factor of 1,1 as the molecular weight of latanoprost acid is lower than the weight of latanoprost.

Row | SMILES | amount found in the dermis [1] | delivery to layers of the skin ([1]; stratum corneum, epidermis and dermis) | uptake of latanoprost, skin punches with hair vs without hair ([2]; FIG. 1, microgram per cm^2) | content of latanoprost acid, punches with hair vs without hair ([2]; FIG. 2) | latanoprost acid in eyelashes ([3]; 25 hours incubation, FIG. 5) | amount of latanoprost in eyelashes ([3]; FIG. 4, 2, 15, 25 hrs) | amount of latanoprost in skin parts ([3]; FIG. 4, compared with eyelashes)
1 | CCC(=O)O[C@]1(C(=O)CO)CC[C@H]2[C@@H]3CCC4=CC(=O)CC[C@]4(C)[C@H]3CC[C@@]21C [cortexolone 17α-propionate, 21-Hydroxy-3,20-dioxopregn-4-en-17-yl propionate] | especially high amounts of cortexolone 17α-propionate were found in the dermis | effectively and rapidly delivered to layers of the skin |  |  |  |  | 
2 | CC(C)OC(=O)CCC/C=C\C[C@@H]1[C@@H](CC[C@@H](O)CCc2ccccc2)[C@H](O)C[C@@H]1O [latanoprost] |  |  | higher for skin punches with hair than for skin punches without hair | higher content of latanoprost acid than punches without hair | a small amount of latanoprost acid was detected | preferred affinity to the eyelashes | Comparable lower amount of latanoprost were detected in the skin parts

— patent publication US20260041773A1, “TOPICAL COMPOSITION COMPRISING A PROSTAGLANDIN ANALOGUE” (DERMALIQ THERAPEUTICS, INC., priority 2019, published 2026)
